Laboratory results: ChEMBL document CHEMBL1134176, “Structure-activity relationships of novel anti-malarial agents. Part 2: cinnamic acid derivatives” (Bioorg Med Chem Lett, 2001)

tested on: Plasmodium falciparum; test: Inhibitory activity against Plasmodium falciparum Dd2 in erythrocytes; type: functional, organism-based

| IC50 | SMILES |
| --- | --- |
| 0.0093 µM | CCCCN(CCCC)CCC(O)c1cc2c(Cl)cc(Cl)cc2c2cc(C(F)(F)F)ccc12 (stereo unspecified) [HALOFANTRINE] |
| 5.7 µM | Cc1ccc(CC(=O)Nc2ccc(NC(=O)/C=C/c3ccc(C(F)(F)F)cc3)cc2C(=O)c2ccccc2)cc1 |
| 1.2 µM | Cc1ccc(CC(=O)Nc2ccc(NC(=O)/C=C/c3ccc(C(C)C)cc3)cc2C(=O)c2ccccc2)cc1 |
| 1.1 µM | CCCCOc1ccc(/C=C/C(=O)Nc2ccc(NC(=O)Cc3ccc(C)cc3)c(C(=O)c3ccccc3)c2)cc1 |
| 40 µM | Cc1ccc(CC(=O)Nc2ccc(NC(=O)/C=C/c3ccc(C=O)cc3)cc2C(=O)c2ccccc2)cc1 |
| 1.2 µM | CCc1ccc(/C=C/C(=O)Nc2ccc(NC(=O)Cc3ccc(C)cc3)c(C(=O)c3ccccc3)c2)cc1 |
| 3 µM | Cc1ccc(CC(=O)Nc2ccc(NC(=O)/C=C/c3ccc(C(C)(C)C)cc3)cc2C(=O)c2ccccc2)cc1 |
| 3.2 µM | Cc1ccc(CC(=O)Nc2ccc(NC(=O)/C=C/c3ccc(Br)cc3)cc2C(=O)c2ccccc2)cc1 |
| 0.2 µM | CCCOc1ccc(/C=C/C(=O)Nc2ccc(NC(=O)Cc3ccc(C)cc3)c(C(=O)c3ccccc3)c2)cc1 |
| 43 µM | Cc1ccc(CC(=O)Nc2ccc(NC(=O)/C=C/c3ccc(C=C(C#N)C#N)cc3)cc2C(=O)c2ccccc2)cc1 |
| 5.5 µM | Cc1ccc(CC(=O)Nc2ccc(NC(=O)/C=C/c3ccc(N)cc3)cc2C(=O)c2ccccc2)cc1 |
| 1 µM | COC(=O)c1ccc(/C=C/C(=O)Nc2ccc(NC(=O)Cc3ccc(C)cc3)c(C(=O)c3ccccc3)c2)cc1 |
| 1.4 µM | Cc1ccc(/C=C/C(=O)Nc2ccc(NC(=O)Cc3ccc(C)cc3)c(C(=O)c3ccccc3)c2)cc1 |
| 0.85 µM | CCOc1ccc(/C=C/C(=O)Nc2ccc(NC(=O)Cc3ccc(C)cc3)c(C(=O)c3ccccc3)c2)cc1 |
| 5.5 µM | Cc1ccc(CC(=O)Nc2ccc(NC(=O)/C=C/c3ccc(Cl)cc3)cc2C(=O)c2ccccc2)cc1 |
| 6.5 µM | Cc1ccc(CC(=O)Nc2ccc(NC(=O)/C=C/c3ccc([N+](=O)[O-])cc3)cc2C(=O)c2ccccc2)cc1 |
| 1.3 µM | COc1ccc(/C=C/C(=O)Nc2ccc(NC(=O)Cc3ccc(C)cc3)c(C(=O)c3ccccc3)c2)cc1 |
| 5.8 µM | Cc1ccc(CC(=O)Nc2ccc(NC(=O)/C=C/c3ccccc3)cc2C(=O)c2ccccc2)cc1 |
| > 100 µM | Cc1ccc(CC(=O)Nc2ccc(NC(=O)/C=C/c3ccc(C#N)cc3)cc2C(=O)c2ccccc2)cc1 |

| SMILES | IC50 |
| --- | --- |
| O=C1C(O)=C([C@H]2CC[C@H](c3ccc(Cl)cc3)CC2)C(=O)c2ccccc21 [ATOVAQUONE] | 0.001 µM |
| C[C@@H]1CC[C@H]2[C@@H](C)C(=O)O[C@@H]3O[C@@]4(C)CC[C@@H]1[C@]32OO4 [ARTEMISININ] | 0.018 µM |
| Cc1ccc(CC(=O)Nc2ccc(NC(=O)CCc3ccccc3)cc2C(=O)c2ccccc2)cc1 | 2.7 µM |
| CCc1nc(N)nc(N)c1-c1ccc(Cl)cc1 [PYRIMETHAMINE] | 2.5 µM |
| CC1(C)N=C(N)N=C(N)N1c1ccc(Cl)cc1 [CYCLOGUANIL] | 2.2 µM |
| OC(c1cc(C(F)(F)F)nc2c(C(F)(F)F)cccc12)C1CCCCN1 (stereo unspecified) [MEFLOQUINE] | 0.057 µM |
| C=C[C@H]1CN2CC[C@H]1C[C@H]2[C@H](O)c1ccnc2ccc(OC)cc12 [QUININE] | 0.38 µM |
